The values that follow come from patent US7960406B2, “Diketo substituted pyrrolo[2,3-c] pyridines” (priority 2008, dated 2011).

The term EC50 denotes the midpoint of the concentration-response curve.

Where only a bound is given, the exact number is not on record here.

The subject of one test is HIV-1 single-round infectious reporter virus. Put plainly: Single-round infectious HIV-1 luciferase reporter virus infection of HeLa CD4 cells. The format is cell-based. As to conditions: Human immunodeficiency virus 1, HeLa, 72 h. The procedure: • Virus production—Human embryonic Kidney cell line, 293T, was propagated in Dulbecco's Modified Eagle Medium (Invitrogen, Carlsbad, Calif.) containing 10% fetal Bovine serum (FBS, Sigma, St. Louis, Mo.). • Virus infection—Human epithelial cell line, HeLa, expressing the HIV-1 receptor CD4 was propagated in Dulbecco's Modified Eagle Medium (Invitrogen, Carlsbad, Calif.) containing 10% fetal Bovine serum (FBS, Sigma, St. Louis, Mo.) and supplemented with 0.2 mg/mL GENETICIN® (Invitrogen, Carlsbad, Calif.). • Virus—Single-round infectious reporter virus was produced by co-transfecting human embryonic Kidney 293 cells with an HIV-1 envelope DNA expression vector and a proviral cDNA containing an envelope deletion mutation and the luciferase reporter gene inserted in place of HIV-1 nef sequences (Chen et al., Ref. 41). Transfections were performed using Lipofectamine Plus reagent as described by the manufacturer (Invitrogen, Carlsbad, Calif.). Experimental Procedure:
1. HeLa CD4 cells were plated in 96 well plates at a cell density of 1×10^4 cells per well in 100 μl Dulbecco's Modified Eagle Medium containing 10% fetal Bovine serum and incubated overnight.
2. Compound was added in a 2 μl dimethylsulfoxide solution, so that the final assay concentration would be ≦10 μM.
3. 100 μl of single-round infectious reporter virus in Dulbecco's Modified Eagle Medium was then added to the plated cells and compound at an approximate multiplicity of infection (MOI) of 0.01, resulting in a final volume of 200 μl per well.
4. Virally-infected cells were incubated at 37° C., in a CO2 incubator, and harvested 72 h after infection.
5. Viral infection was monitored by measuring luciferase expression from viral DNA in the infected cells using a luciferase reporter gene assay kit, as described by the manufacturer (Roche Molecular Biochemicals, Indianapolis, Ind.). Infected cell supernatants were removed and 50 μl of lysis buffer was added per well. After 15 minutes, 50 μl of freshly-reconstituted luciferase assay reagent was added per well. Luciferase activity was then quantified by measuring luminescence using a Wallac MICROBETA® scintillation counter.
6. The percent inhibition for each compound was calculated by quantifying the level of luciferase expression in cells infected in the presence of each compound as a percentage of that observed for cells infected in the absence of compound and subtracting such a determined value from 100.
7. An EC50 provides a method for comparing the antiviral potency of the compounds of this disclosure. The effective concentration for fifty percent inhibition (EC50) was calculated with the Microsoft Excel Xlfit curve fitting software. For each compound, curves were generated from percent inhibition calculated at 10 different concentrations by using a four parameter logistic model (model 205). Table 1 is the key for the data in Table 2.
In general terms: Reporter assays use an easily measured gene product as a stand-in for the process of interest.
Compound `O=C(C(=O)N1CCn2c(nnc2-c2ccccc2)C1)c1c[nH]c2cccc(F)c12` [Compound A1] registered an EC50 of 217 nM.
As for `COc1cnc(-n2cnc(C)n2)c2[nH]cc(C(=O)C(=O)N3CCn4c(nnc4-c4ccccc4)C3)c12` [Compound B1], the response was half-maximal at 0.95 nM (EC50).
On to `COc1cnc(-n2cnc(C)n2)c2[nH]cc(C(=O)C(=O)N3CCn4c(nnc4-c4ccccc4C)C3)c12` [Compound C1], for which the EC50 came out at 11.8 nM.
For the compound `COc1cnc(-n2cnc(C)n2)c2[nH]cc(C(=O)C(=O)N3CCn4c(nnc4-c4ccccc4F)C3)c12` [Compound C2], the EC50 turned out to be 0.29 nM.
For the compound `COc1cnc(-n2cnc(C)n2)c2[nH]cc(C(=O)C(=O)N3CCn4c(nnc4-c4ccccc4C(N)=O)C3)c12` [Compound C4], the EC50 was above 500 nM.
Consider `COc1cnc(-n2cnc(C)n2)c2[nH]cc(C(=O)C(=O)N3CCn4c(nnc4-c4ccccc4O)C3)c12` [Compound C7], for which a half-maximal effect (EC50) was put at 1.91 nM.
`COc1cnc(-n2ccnn2)c2[nH]cc(C(=O)C(=O)N3CCn4c(-c5ccccc5)cnc4C3)c12` [Compound D2]: the EC50 turned out to be 0.05 nM.
`COc1cnc(-n2cnc(C)n2)c2[nH]cc(C(=O)C(=O)N3CCn4c(-c5ccccc5C#N)cnc4C3)c12` [Compound F5] showed an EC50 of 98.9 nM.
`COc1cnc(-n2cnc(C)n2)c2[nH]cc(C(=O)C(=O)N3CCn4c(-c5ccncc5)cnc4C3)c12` [Compound F6] returned an EC50 of 13.6 nM.
On the same count and under the same terms, for `COc1cnc(-n2cnc(C)n2)c2[nH]cc(C(=O)C(=O)N3CCn4c(nc(C)c4-c4ccccn4)C3)c12` [Compound H2] the value was 1 nM; for `COc1cnc(-n2cnc(C)n2)c2[nH]cc(C(=O)C(=O)N3CCn4c(nc(C(F)(F)F)c4-c4ccccn4)C3)c12` [Compound I3], 0.59 nM; for `COc1cnc(-c2cc(CO)[nH]n2)c2[nH]cc(C(=O)C(=O)N3CCn4c(-c5ccccc5)cnc4C3)c12` [Compound J1], 0.05 nM.
In turn, `COc1cnc(-n2cnc(C)n2)c2[nH]cc(C(=O)C(=O)N3CCc4c(c(-c5ccccc5)nn4-c4ccccc4)C3)c12` [Compound K1] yielded an EC50 of 2.6 nM.
In turn, `COc1cnc(-n2cnc(C)n2)c2[nH]cc(C(=O)C(=O)N3CCc4c(cnn4-c4cc(C)nc(C)n4)C3)c12` [Compound L2] yielded an EC50 of 331 nM.
Still for that read-out and setting: for `COc1cnc(-n2cnc(C)n2)c2[nH]cc(C(=O)C(=O)N3CCc4c(cnn4-c4ccccc4)C3)c12` [Compound L3] the value was 0.03 nM.
With `COc1cnc(-n2cnc(C)n2)c2[nH]cc(C(=O)C(=O)N3CCc4c(ncn4-c4ccccc4)C3)c12` [Compound M1], the EC50 was determined as 0.07 nM.
Regarding `COc1cnc(-n2cnc(C)n2)c2[nH]cc(C(=O)C(=O)N3CCn4c(cnc4-c4ccccc4)C3)c12` [Compound N1], the EC50 was determined as 0.06 nM.
Same read-out and setting: for `O=C(C(=O)N1CCN2C(c3ccccc3)=NCC2C1)c1c[nH]c2c(-n3ccnn3)ncc(F)c12` (stereo not drawn) [Compound O1] the value was 13 nM.

Still in this test, the particulars now being: Human immunodeficiency virus 1, HeLa, 72 h, read-out: EC50 Group from Table 1.
On to `COc1cnc(-n2ccnn2)c2[nH]cc(C(=O)C(=O)N3CCn4c(nnc4-c4ccccc4)C3)c12` [Compound B2], for which the EC50 is below 500 nM.
Still for that read-out and setting: for `O=C(C(=O)N1CCn2c(nnc2-c2ccccc2)C1)c1c[nH]c2c(-n3ccnn3)ncc(F)c12` [Compound B3] the value was below 500 nM; for `COCc1ncn(-c2ncc(OC)c3c(C(=O)C(=O)N4CCn5c(nnc5-c5ccccc5)C4)c[nH]c23)n1` [Compound B4], below 500 nM.
In the case of `COc1cnc(-n2cnc(C)n2)c2[nH]cc(C(=O)C(=O)N3CCn4c(nnc4-c4ccccn4)C3)c12` [Compound C3], the EC50 is below 500 nM.
Take `COc1ccccc1-c1nnc2n1CCN(C(=O)C(=O)c1c[nH]c3c(-n4cnc(C)n4)ncc(OC)c13)C2` [Compound C5]: the EC50 is below 500 nM.
On the same count and under the same terms, for `COc1cnc(-n2cnc(C)n2)c2[nH]cc(C(=O)C(=O)N3CCn4c(nnc4-c4ccccc4Cl)C3)c12` [Compound C6] the value was below 500 nM; for `COc1cnc(-n2cnc(C)n2)c2[nH]cc(C(=O)C(=O)N3CCn4c(nnc4-c4cccc(C)c4)C3)c12` [Compound C8], below 500 nM.
On to `COc1cnc(-n2cnc(C)n2)c2[nH]cc(C(=O)C(=O)N3CCn4c(-c5ccccc5)cnc4C3)c12` [Compound D1], for which the EC50 is below 500 nM.
For the compound `COc1cnc(-c2cncnc2)c2[nH]cc(C(=O)C(=O)N3CCn4c(-c5ccccc5)cnc4C3)c12` [Compound D3], the EC50 was below 500 nM.
On to `COc1cnc(-n2cnc(C)n2)c2[nH]cc(C(=O)C(=O)N3CCn4c(-c5ccccn5)cnc4C3)c12` [Compound E1], for which the EC50 is below 500 nM.
Consider `COc1cnc(-n2cnc(C)n2)c2[nH]cc(C(=O)C(=O)N3CCn4c(-c5cccc(O)c5)cnc4C3)c12` [Compound F1], for which the EC50 is below 500 nM.
Take `COc1cnc(-n2cnc(C)n2)c2[nH]cc(C(=O)C(=O)N3CCn4c(-c5cccnc5)cnc4C3)c12` [Compound F2]: the EC50 is below 500 nM.
Consider `COc1cnc(-n2cnc(C)n2)c2[nH]cc(C(=O)C(=O)N3CCn4c(-c5ccc(O)cc5)cnc4C3)c12` [Compound F3], for which the EC50 was below 500 nM.
As for `COc1ccc(-c2cnc3n2CCN(C(=O)C(=O)c2c[nH]c4c(-n5cnc(C)n5)ncc(OC)c24)C3)cn1` [Compound F4], the EC50 is below 500 nM.
Consider `COc1cnc(-n2cnc(C)n2)c2[nH]cc(C(=O)C(=O)N3CCn4c(nc(Cl)c4-c4ccccc4)C3)c12` [Compound G1], for which the EC50 is below 500 nM.
`COc1cnc(-n2cnc(C)n2)c2[nH]cc(C(=O)C(=O)N3CCn4c(nc(Br)c4-c4ccccc4)C3)c12` [Compound G2]: the EC50 was below 500 nM.
Same read-out and setting: for `COc1nc2n(c1-c1ccccc1)CCN(C(=O)C(=O)c1c[nH]c3c(-n4cnc(C)n4)ncc(OC)c13)C2` [Compound H1a] the value was below 500 nM; for `COc1nc2n(c1-c1ccccn1)CCN(C(=O)C(=O)c1c[nH]c3c(-n4cnc(C)n4)ncc(OC)c13)C2` [Compound H1b], below 500 nM.
On the same count and under the same terms, for `COc1cnc(-n2cnc(C)n2)c2[nH]cc(C(=O)C(=O)N3CCn4c(nc(C(F)(F)F)c4-c4ccccc4)C3)c12` [Compound I1] the value was below 500 nM; for `O=C(C(=O)N1CCn2c(nc(C(F)(F)F)c2-c2ccccc2)C1)c1c[nH]c2c(-n3ccnn3)ncc(F)c12` [Compound I2], below 500 nM.
Consider `COc1cnc(-c2cc(C(C)(C)O)[nH]n2)c2[nH]cc(C(=O)C(=O)N3CCn4c(-c5ccccc5)cnc4C3)c12` [Compound J2], for which the EC50 is below 500 nM.
In the case of `COc1cnc(-n2cnc(C)n2)c2[nH]cc(C(=O)C(=O)N3CCc4c(cnn4-c4ncccn4)C3)c12` [Compound L1], the EC50 is below 500 nM.
Take `COc1cnc(-n2cnc(C)n2)c2[nH]cc(C(=O)C(=O)N3CCc4c(cnn4-c4ccccn4)C3)c12` [Compound L4]: the EC50 was below 500 nM.
Consider `COc1cnc(-n2cnc(C)n2)c2[nH]cc(C(=O)C(=O)N3CCc4c(cnn4-c4cnccn4)C3)c12` [Compound L5], for which the EC50 was below 500 nM.
Regarding `COc1cnc(-n2cnc(C)n2)c2[nH]cc(C(=O)C(=O)N3CCc4c(ncn4-c4ccccn4)C3)c12` [Compound M2], the EC50 is below 500 nM.
For the compound `COc1cnc(-n2cnc(C)n2)c2[nH]cc(C(=O)C(=O)N3CCn4c(cnc4-c4ccc(F)cc4F)C3)c12` [Compound N2], the EC50 is below 500 nM.
On the same count and under the same terms, for `COc1cnc(-n2cnc(C)n2)c2[nH]cc(C(=O)C(=O)N3CCN4C(c5ccccn5)=NCC4C3)c12` (stereo not drawn) [Compound O2] the value was below 500 nM.
